# Measurements taken from US7648997B2, “Hydroxylamine substituted imidazoquinolines” (Coley Pharmaceutical Group, Inc., priority 2003, dated 2010).
row,Structure (SMILES),melting point [°C]
1,"CCCc1nc2c(N)nc3ccccc3c2n1CCCON [Example 1, 1-[3-(Aminooxy)propyl]-2-propyl-1H-imidazo[4,5-c]quinolin-4-amine]",145 to 148
2,"CCCc1nc2c(N)nc3ccccc3c2n1CCCONC(=O)C1CC1 [Example 2, N-[3-(4-Amino-2-propyl-1H-imidazo[4,5-c]quinolin-1-yl)propoxy]cyclopropanecarboxamide]",103 to 105
3,"CCCCc1nc2c(N)nc3ccccc3c2n1CCCCONC(C)C [Example 72, 2-Butyl-1-{4-[(isopropylamino)oxy]butyl}-1H-imidazo[4,5-c]quinolin-4-amine]",115 to 117
4,"CCCc1nc2c(N)nc(C)c(C)c2n1CCCONC(C)c1ccccc1 (centres unmarked) [Example 129, 6,7-Dimethyl-1-(3-{[(1-phenylethyl)amino]oxy}propyl)-2-propyl-1H-imidazo[4,5-c]pyridin-4-amine]",125 to 127
5,"CCCc1nc2c(N)nc3ccccc3c2n1CCCONC(C)C [Example 130, 1-{3-[(Isopropylamino)oxy]propyl}-2-propyl-1H-imidazo[4,5-c]quinolin-4-amine]",147 to 150
6,"CCCc1nc2c(N)nc3cc(Br)ccc3c2n1CCCONC(=O)C(C)C [Example 137, N-[3-(4-Amino-7-bromo-2-propyl-1H-imidazo[4,5-c]quinolin-1-yl)propoxy]-2-methylpropanamide]",176 to 178
7,"CCCc1nc2c(N)nc3cc(-c4ccccc4)ccc3c2n1CCCONC(=O)C(C)C [Example 138, N-[3-(4-Amino-7-phenyl-2-propyl-1H-imidazo[4,5-c]quinolin-1-yl)propoxy]-2-methylpropanamide]",169 to 171
8,"CCOCc1nc2c(N)nc3cc(-c4ccccc4)cnc3c2n1CCCONC(C)C [Example 139, 2-(Ethoxymethyl)-1-{3-[(isopropylamino)oxy]propyl}-7-phenyl-1H-imidazo[4,5-c][1,5]naphthyridin-4-amine]",142 to 144
